Data published in patent US9511080B2, “Okadaella gastrococcus and cancer” (Okada Medical Services Pty Ltd, priority 2009, dated 2016).

Experiments:
[1] = tested on: Okadaella gastrococcus (Og) isolates; assay: In vitro antibiotic sensitivity of Og (E-tests and diffusion disc tests); format: cell-based; details: for Og can be treated using antibiotic (in vitro assays): 25 Og isolates from gastric mucosal biopsy specimens
Procedure: Twenty-five Og isolates were obtained from gastric mucosal biopsy specimens. E-tests and diffusion disc tests were performed under microaerophilic condition (Oxygen 5%, CO2 10%, and Nitrogen 85%) utilizing. 5% horse blood agar, except metronidazole which was tested under anaerobic condition. Antibiotic sensitivity was read 72 hours after incubation. Randomly selected isolates were also examined under TEM to confirm the ultrastructure of Og. Results: Og was sensitive to various antibiotics, in particular to the penicillins, the cephalosporins, the quinolones, and chloramphenicol.

[2] = tested on: intestinal metaplasia of the gastric mucosa; details: co-administered with Hp eradication therapy (Walker, 2003); cited from earlier work

Structure (SMILES) | Og can be treated using antibiotic (in vitro assays) [1] | Antibiotic sensitivity of Og ([1]; E-tests and diffusion disc tests, microaerophilic, 5% horse blood agar, read 72 hours after incubation) | Effect on intestinal metaplasia of the gastric mucosa [2]
CC1(C)S[C@@H]2[C@H](NC(=O)[C@H](N)c3ccccc3)C(=O)N2[C@H]1C(=O)O [ampicillin] | can be treated |  | 
COc1c(N2CCNC(C)C2)c(F)cc2c(=O)c(C(=O)O)cn(C3CC3)c12 (stereo not shown) [gatifloxacin] | can be treated |  | 
CO/N=C(\C(=O)N[C@@H]1C(=O)N2C(C(=O)O)=C(COC(C)=O)CS[C@H]12)c1csc(N)n1 [cefotaxime] | can be treated |  | 
O=C(O)c1cn(C2CC2)c2cc(N3CCNCC3)c(F)cc2c1=O [ciprofloxacin] | can be treated |  | 
O=C(N[C@H](CO)[C@H](O)c1ccc([N+](=O)[O-])cc1)C(Cl)Cl [chloramphenicol] | can be treated | sensitive | 
O=C1O[C@H]([C@@H](O)CO)C(O)=C1O [ascorbic acid] |  |  | significantly resolved the intestinal metaplasia
